Laboratory results as given in patent US11155586B2, “Cystine knot scaffold platform” (Genentech, Inc., priority 2015, dated 2021).
Positions of bridges follow the written chain, without caps; N, C: chain ends. Residues, ends and D or L forms follow the SMILES beside them.

Legend:
hVEGF-A (8-109) = molecular target: T1, hVEGF-A (8-109) (Homo sapiens, UniProt P15692); experiment: Phage competition ELISA; type: binding
T1 sequence (P15692 214-315): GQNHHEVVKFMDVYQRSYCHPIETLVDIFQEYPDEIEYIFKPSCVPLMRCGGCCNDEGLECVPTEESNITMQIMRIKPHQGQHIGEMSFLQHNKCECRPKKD

EGF and EGFR = molecular target: T2, EGF and EGFR (Homo sapiens, UniProt P01133); experiment: Competition ELISA, growth factor/receptor interaction; type: binding; details: FIG. 2B
T2 construct: purchased R &D Systems (Minneapolis, Minn.)
T2 sequence (P01133 971-1023 limits assumed): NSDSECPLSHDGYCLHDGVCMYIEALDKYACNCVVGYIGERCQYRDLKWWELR
Method: (§1) Binding specificity of each peptide was established by competition ELISA. […] After blocking with block buffer (PBS with 0.5% BSA and 0.05% TWEEN®20) for 2 hours at room temperature, the receptor-Fc fusions or biotinylated receptors were serially diluted using assay buffer (PBS with 0.5% BSA and 0.05% TWEEN®20) and incubated for 1 hour at room temperature. […] Competition ELISA was conducted in an identical fashion as described above except after blocking, a mixture of serially diluted peptide containing a constant concentration of receptor-Fc fusion or biotinylated receptor (concentration of receptor was set to EC60) was added and incubated for 1 hour. All recombinant human proteins and antibodies were purchased from R &D Systems (Minneapolis, Minn.).

PIGF-2 and Flt-1 = molecular target: T3, PIGF-2 and Flt-1 (Homo sapiens, UniProt P49763); experiment: as above; type: binding; details: FIG. 2A
T3 construct: purchased R &D Systems (Minneapolis, Minn.)
T3 sequence (P49763 19-170 isoform P49763-3 limits assumed): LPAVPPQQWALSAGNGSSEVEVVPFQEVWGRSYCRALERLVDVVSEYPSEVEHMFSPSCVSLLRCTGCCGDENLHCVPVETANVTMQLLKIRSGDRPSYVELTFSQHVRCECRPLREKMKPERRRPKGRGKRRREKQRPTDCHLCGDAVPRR
Method: as §1

VEGF-C and Flt-4 = molecular target: T4, VEGF-C and Flt-4 (Homo sapiens, UniProt P49767); experiment: as above; type: binding; details: FIG. 2A
T4 construct: purchased R &D Systems (Minneapolis, Minn.)
T4 sequence (P49767 112-227 limits assumed): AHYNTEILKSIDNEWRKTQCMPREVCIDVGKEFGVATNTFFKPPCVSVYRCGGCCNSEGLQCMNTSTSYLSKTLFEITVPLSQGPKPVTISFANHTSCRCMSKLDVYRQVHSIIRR
Method: as §1

VEGF-D and Flt-4 = molecular target: T5, VEGF-D and Flt-4 (Homo sapiens, UniProt O43915); experiment: as above; type: binding; details: FIG. 2A
T5 construct: purchased R &D Systems (Minneapolis, Minn.)
T5 sequence (O43915 89-205 limits assumed): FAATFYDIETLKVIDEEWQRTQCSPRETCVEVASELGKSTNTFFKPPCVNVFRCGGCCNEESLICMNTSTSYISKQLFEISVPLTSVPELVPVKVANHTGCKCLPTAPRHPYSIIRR
Method: as §1

PDGF and PDGFR = molecular target: T6, PDGF and PDGFR (Homo sapiens, UniProt P01127); experiment: as above; type: binding; details: FIG. 2B
T6 construct: purchased R &D Systems (Minneapolis, Minn.)
T6 sequence (P01127 82-190 limits assumed): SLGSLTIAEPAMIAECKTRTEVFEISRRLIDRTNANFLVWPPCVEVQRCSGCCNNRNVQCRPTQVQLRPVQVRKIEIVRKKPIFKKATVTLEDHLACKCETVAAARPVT
Method: as §1

VEGF-A and Flt-1 = molecular target: T7, VEGF-A and Flt-1 (Homo sapiens, UniProt P15692); experiment: as above; type: binding; details: FIGS. 2A and 2B
T7 construct: VEGF-A(8-109) and Flt-1; purchased R &D Systems (Minneapolis, Minn.)
Method: as §1

VEGF-B and Flt-1 = molecular target: T8, VEGF-B and Flt-1 (Homo sapiens, UniProt P49765); experiment: as above; type: binding; details: FIG. 2A
T8 construct: purchased R &D Systems (Minneapolis, Minn.)
T8 sequence (P49765 22-136 limits assumed): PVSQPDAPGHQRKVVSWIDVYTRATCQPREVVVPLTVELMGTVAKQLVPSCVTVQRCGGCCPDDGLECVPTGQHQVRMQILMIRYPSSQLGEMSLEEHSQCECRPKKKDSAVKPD
Method: as §1

IGF and IGFR = molecular target: T9, IGF and IGFR (Homo sapiens, UniProt P05019); experiment: as above; type: binding; details: FIG. 2B
T9 construct: purchased R &D Systems (Minneapolis, Minn.)
T9 sequence (P05019 49-118 limits assumed): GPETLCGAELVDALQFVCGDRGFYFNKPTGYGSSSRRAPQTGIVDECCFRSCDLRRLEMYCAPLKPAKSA
Method: as §1

NGF and NGFR = molecular target: T10, NGF and NGFR (Homo sapiens, UniProt P01138); experiment: as above; type: binding; details: FIG. 2B
T10 construct: purchased R &D Systems (Minneapolis, Minn.)
T10 sequence (P01138 122-241): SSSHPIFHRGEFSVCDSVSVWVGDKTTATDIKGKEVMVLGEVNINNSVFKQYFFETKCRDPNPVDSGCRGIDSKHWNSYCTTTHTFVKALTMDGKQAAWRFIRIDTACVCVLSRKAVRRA
Method: as §1

[1] = Oxidative stability (AAPH, LC-MS); type: physicochemical; details: 16 hours at 40° C.
Method: The oxidative stability of various CKP variants was assayed as follows: 5 μL of 11 mM AAPH (Calbiochem catalog no. 100110) in water was added to 50 uL of variant peptide sample (prepared as 1 mg/mL peptide in 20 mM histidine acetate pH 5.5) and the mix was incubated for 16 hours at 40° C. At the end of the incubation, the sample was quenched by addition of 27.5 uL of 40 mM methionine, followed by addition of 160 ul of 20 mM Histidine acetate, 100 mM sucrose at pH 5.5 to dilute the samples. The reactions were analyzed by LC-MS.

[2] = tested on: choroidal neovascularization in rat eyes; experiment: VEGF-A driven model of laser-induced choroidal neovascularization; type: in vivo; details: intravitreal, 14-day period, vs control eyes, FIG. 12
Method: Next, VEGF-A binding variants VEGF_CKP9.54.90, VEGF_CKP9.63.12, and VEGF_CKP9.63.44 were assessed for their in vivo efficacy in a VEGF-A driven model of choroidal neovascularization. Laser-burnt spots were created in rat eyes and the formation of new vessels was monitored after a 14-day period in the presence and absence of peptide that was administered intravitreally at different intervals.

Row | SMILES | IC50 (hVEGF-A (8-109)) | disruption of the interaction between EGF and EGFR (EGF and EGFR) | disruption of the interaction between PIGF-2 and Flt-1 (PIGF-2 and Flt-1) | disruption of the interaction between VEGF-C and Flt-4 (VEGF-C and Flt-4) | disruption of the interaction between VEGF-D and Flt-4 (VEGF-D and Flt-4) | disruption of the interaction between PDGF and PDGFR (PDGF and PDGFR) | disruption of the interaction between VEGF-A and Flt-1 (VEGF-A and Flt-1) | disruption of the interaction between VEGF-B and Flt-1 (VEGF-B and Flt-1) | disruption of the interaction between IGF and IGFR (IGF and IGFR) | disruption of the interaction between NGF and NGFR (NGF and NGFR) | oxidation at Met5 within loop 1 [1] | inhibition of laser-induced choroidal neovascularization (neovascular area) [2]
1 | CC[C@H](C)[C@@H]1NC(=O)[C@H](CC(N)=O)NC(=O)[C@@H](NC(=O)CN)CSSC[C@@H](C(=O)N[C@H](C(=O)N[C@H]2CSSC[C@@H](C(=O)NCC(=O)O)NC(=O)[C@H](CO)NC(=O)[C@H](CCC(N)=O)NC(=O)[C@H](Cc3ccc(O)cc3)NC(=O)[C@H](Cc3ccc(O)cc3)NC(=O)[C@H](CCC(N)=O)NC2=O)C(C)C)NC(=O)CNC(=O)[C@H](C)NC(=O)[C@H](CC(C)C)NC(=O)[C@@H]2CSSC[C@H](NC(=O)CNC(=O)[C@H](Cc3c[nH]c4ccccc34)NC(=O)[C@H](Cc3ccccc3)NC(=O)[C@@H]3CCCN3C(=O)[C@H](CC(C)C)NC(=O)[C@H](CCSC)NC1=O)C(=O)N[C@@H](CCCCN)C(=O)N[C@@H](CCC(N)=O)C(=O)N[C@@H](CC(=O)O)C(=O)N[C@@H](CO)C(=O)N[C@@H](CC(=O)O)C(=O)N2 [VEGF_CKP9.54] (H-GCNIMLPFWGCKQDSDCLAGCVCQYYQSCG-OH; disulfide 2-21, 11-17, 23-29 (inferred); N-terminus and C-terminus assumed) | 450 nM |  |  |  |  |  |  |  |  |  |  | 
2 | CC[C@H](C)[C@@H]1NC(=O)[C@H](CC(N)=O)NC(=O)[C@@H](NC(=O)CN)CSSC[C@@H](C(=O)N[C@H](C(=O)N[C@H]2CSSC[C@@H](C(=O)NCC(=O)O)NC(=O)[C@H](CO)NC(=O)[C@H](CCC(N)=O)NC(=O)[C@H](Cc3ccc(O)cc3)NC(=O)[C@H](Cc3ccc(O)cc3)NC(=O)[C@H](CCC(N)=O)NC2=O)C(C)C)NC(=O)CNC(=O)[C@H](C)NC(=O)[C@H](CC(C)C)NC(=O)[C@@H]2CSSC[C@H](NC(=O)CNC(=O)[C@H](Cc3c[nH]c4ccccc34)NC(=O)[C@H](Cc3ccccc3)NC(=O)[C@@H]3CCCN3C(=O)[C@H](CC(C)C)NC(=O)[C@H](CCSC)NC1=O)C(=O)NCC(=O)N[C@@H](CCCNC(=N)N)C(=O)N[C@@H](CC(=O)O)C(=O)N[C@@H](Cc1ccccc1)C(=O)N[C@@H](CCC(=O)O)C(=O)N2 [VEGF_CKP9.54.90] (H-GCNIMLPFWGCGRDFECLAGCVCQYYQSCG-OH; disulfide 2-21, 11-17, 23-29; N-terminus and C-terminus assumed) |  | not disrupt | not disrupt | not disrupt | not disrupt | not disrupt | disrupts | not disrupt | not disrupt | not disrupt | ~30% | effective inhibition
3 | CSCC[C@@H]1NC(=O)[C@H](C(C)C)NC(=O)[C@H](CC(=O)O)NC(=O)[C@@H](NC(=O)CN)CSSC[C@@H](C(=O)N[C@H](C(=O)N[C@H]2CSSC[C@@H](C(=O)NCC(=O)O)NC(=O)[C@H](CO)NC(=O)[C@H](CC(N)=O)NC(=O)[C@H](Cc3ccc(O)cc3)NC(=O)[C@H](Cc3c[nH]c4ccccc34)NC(=O)[C@H](Cc3c[nH]cn3)NC2=O)C(C)C)NC(=O)CNC(=O)[C@H](C)NC(=O)[C@H](CC(C)C)NC(=O)[C@@H]2CSSC[C@H](NC(=O)CNC(=O)[C@H](Cc3c[nH]c4ccccc34)NC(=O)[C@H](Cc3ccc(O)cc3)NC(=O)[C@@H]3CCCN3C(=O)[C@H](CCC(N)=O)NC1=O)C(=O)N[C@@H](CCCCN)C(=O)N[C@@H](CCC(N)=O)C(=O)N[C@@H](CC(=O)O)C(=O)N[C@@H](CO)C(=O)N[C@@H](CC(=O)O)C(=O)N2 [VEGF_CKP9.63] (H-GCDVMQPYWGCKQDSDCLAGCVCHWYNSCG-OH; disulfide 2-21, 11-17, 23-29 (inferred); N-terminus and C-terminus assumed) | 146 nM |  |  |  |  |  |  |  |  |  |  | 
